In doi:10.1101/2023.11.24.568596v1 (biorxiv, 2023):

What was measured:
Settings in all cases: binder
[1] = biological target: SRC (Homo sapiens, UniProt P12931)
[2] = biological target: SRPK1 (Homo sapiens, UniProt Q96SB4)
[3] = biological target: STLK3 (Homo sapiens, UniProt Q9UEW8)
[4] = biological target: TAF1 (Homo sapiens, UniProt P21675)
[5] = biological target: T1, TLK1 (Homo sapiens, UniProt Q9UKI8)
T1 sequence (Q9UKI8 1-766): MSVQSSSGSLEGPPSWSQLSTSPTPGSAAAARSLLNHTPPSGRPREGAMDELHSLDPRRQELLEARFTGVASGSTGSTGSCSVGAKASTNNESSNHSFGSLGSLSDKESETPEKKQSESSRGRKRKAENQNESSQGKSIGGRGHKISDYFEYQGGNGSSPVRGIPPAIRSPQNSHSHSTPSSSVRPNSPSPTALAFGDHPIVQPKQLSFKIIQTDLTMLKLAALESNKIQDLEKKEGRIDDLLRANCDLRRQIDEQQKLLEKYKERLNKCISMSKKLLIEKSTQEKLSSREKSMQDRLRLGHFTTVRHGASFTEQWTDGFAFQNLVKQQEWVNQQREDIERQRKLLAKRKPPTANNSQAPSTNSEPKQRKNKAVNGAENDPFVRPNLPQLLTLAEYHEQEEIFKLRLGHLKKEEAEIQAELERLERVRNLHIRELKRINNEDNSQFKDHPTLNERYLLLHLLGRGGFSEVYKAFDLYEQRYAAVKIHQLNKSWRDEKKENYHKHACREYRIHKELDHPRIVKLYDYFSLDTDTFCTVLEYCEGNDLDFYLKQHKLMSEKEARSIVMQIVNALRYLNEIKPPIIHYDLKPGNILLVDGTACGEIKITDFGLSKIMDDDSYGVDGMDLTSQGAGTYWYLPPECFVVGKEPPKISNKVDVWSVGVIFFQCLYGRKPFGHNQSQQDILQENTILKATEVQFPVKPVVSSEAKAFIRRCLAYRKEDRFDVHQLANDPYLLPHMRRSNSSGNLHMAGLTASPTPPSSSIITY

[6] = biological target: T2, TTK (Homo sapiens, UniProt P33981)
T2 sequence (P33981 1-857): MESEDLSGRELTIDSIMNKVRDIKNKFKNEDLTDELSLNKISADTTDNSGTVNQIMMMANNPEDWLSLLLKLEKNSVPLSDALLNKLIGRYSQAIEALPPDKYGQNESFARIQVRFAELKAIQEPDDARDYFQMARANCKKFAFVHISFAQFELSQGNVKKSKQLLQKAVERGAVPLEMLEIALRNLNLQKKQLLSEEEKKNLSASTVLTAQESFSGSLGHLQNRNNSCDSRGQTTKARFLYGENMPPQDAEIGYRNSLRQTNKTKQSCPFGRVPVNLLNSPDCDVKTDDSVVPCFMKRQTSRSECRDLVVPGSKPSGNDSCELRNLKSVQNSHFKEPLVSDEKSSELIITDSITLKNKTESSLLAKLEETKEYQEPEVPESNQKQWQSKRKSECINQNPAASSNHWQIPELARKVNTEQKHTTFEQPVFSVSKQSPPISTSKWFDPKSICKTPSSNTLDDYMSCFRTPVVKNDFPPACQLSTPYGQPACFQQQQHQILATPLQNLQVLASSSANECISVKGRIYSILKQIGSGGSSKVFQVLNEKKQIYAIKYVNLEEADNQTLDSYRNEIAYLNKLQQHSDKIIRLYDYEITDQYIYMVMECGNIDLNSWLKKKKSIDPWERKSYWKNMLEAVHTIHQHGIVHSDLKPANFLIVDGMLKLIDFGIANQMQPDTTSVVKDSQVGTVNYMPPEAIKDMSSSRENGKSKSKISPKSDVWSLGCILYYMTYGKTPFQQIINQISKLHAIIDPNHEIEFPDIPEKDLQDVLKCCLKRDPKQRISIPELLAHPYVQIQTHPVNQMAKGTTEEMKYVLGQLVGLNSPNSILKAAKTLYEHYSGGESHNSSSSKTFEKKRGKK

[7] = biological target: T3, ULK3 (Homo sapiens, UniProt Q6PHR2)
T3 sequence (Q6PHR2 1-472): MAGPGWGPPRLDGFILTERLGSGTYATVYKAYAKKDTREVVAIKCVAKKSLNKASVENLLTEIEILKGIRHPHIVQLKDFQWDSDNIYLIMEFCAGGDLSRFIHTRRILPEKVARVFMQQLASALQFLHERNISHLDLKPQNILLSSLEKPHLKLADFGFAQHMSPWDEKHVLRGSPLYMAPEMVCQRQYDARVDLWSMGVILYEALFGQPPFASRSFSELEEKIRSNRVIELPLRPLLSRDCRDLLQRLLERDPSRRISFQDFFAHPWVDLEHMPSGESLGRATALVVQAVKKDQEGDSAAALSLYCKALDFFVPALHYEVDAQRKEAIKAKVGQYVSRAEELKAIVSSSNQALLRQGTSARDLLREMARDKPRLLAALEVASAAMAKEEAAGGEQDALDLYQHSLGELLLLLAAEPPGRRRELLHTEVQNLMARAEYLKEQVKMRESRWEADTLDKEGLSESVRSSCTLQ

[8] = biological target: T4, VRK1 (Homo sapiens, UniProt Q99986)
T4 sequence (Q99986 1-396): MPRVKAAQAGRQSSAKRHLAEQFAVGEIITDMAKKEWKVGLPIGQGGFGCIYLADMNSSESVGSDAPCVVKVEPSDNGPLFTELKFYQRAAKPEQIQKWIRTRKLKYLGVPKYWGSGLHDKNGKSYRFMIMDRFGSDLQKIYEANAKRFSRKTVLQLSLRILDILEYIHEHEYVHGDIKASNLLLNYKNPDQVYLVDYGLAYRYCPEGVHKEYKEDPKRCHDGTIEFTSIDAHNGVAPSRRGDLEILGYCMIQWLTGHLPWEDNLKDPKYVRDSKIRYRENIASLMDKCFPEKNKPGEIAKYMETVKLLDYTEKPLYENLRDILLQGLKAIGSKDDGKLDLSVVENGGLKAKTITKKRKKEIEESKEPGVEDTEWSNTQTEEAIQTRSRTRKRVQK

Chain of TAF1 (P21675 whole entry): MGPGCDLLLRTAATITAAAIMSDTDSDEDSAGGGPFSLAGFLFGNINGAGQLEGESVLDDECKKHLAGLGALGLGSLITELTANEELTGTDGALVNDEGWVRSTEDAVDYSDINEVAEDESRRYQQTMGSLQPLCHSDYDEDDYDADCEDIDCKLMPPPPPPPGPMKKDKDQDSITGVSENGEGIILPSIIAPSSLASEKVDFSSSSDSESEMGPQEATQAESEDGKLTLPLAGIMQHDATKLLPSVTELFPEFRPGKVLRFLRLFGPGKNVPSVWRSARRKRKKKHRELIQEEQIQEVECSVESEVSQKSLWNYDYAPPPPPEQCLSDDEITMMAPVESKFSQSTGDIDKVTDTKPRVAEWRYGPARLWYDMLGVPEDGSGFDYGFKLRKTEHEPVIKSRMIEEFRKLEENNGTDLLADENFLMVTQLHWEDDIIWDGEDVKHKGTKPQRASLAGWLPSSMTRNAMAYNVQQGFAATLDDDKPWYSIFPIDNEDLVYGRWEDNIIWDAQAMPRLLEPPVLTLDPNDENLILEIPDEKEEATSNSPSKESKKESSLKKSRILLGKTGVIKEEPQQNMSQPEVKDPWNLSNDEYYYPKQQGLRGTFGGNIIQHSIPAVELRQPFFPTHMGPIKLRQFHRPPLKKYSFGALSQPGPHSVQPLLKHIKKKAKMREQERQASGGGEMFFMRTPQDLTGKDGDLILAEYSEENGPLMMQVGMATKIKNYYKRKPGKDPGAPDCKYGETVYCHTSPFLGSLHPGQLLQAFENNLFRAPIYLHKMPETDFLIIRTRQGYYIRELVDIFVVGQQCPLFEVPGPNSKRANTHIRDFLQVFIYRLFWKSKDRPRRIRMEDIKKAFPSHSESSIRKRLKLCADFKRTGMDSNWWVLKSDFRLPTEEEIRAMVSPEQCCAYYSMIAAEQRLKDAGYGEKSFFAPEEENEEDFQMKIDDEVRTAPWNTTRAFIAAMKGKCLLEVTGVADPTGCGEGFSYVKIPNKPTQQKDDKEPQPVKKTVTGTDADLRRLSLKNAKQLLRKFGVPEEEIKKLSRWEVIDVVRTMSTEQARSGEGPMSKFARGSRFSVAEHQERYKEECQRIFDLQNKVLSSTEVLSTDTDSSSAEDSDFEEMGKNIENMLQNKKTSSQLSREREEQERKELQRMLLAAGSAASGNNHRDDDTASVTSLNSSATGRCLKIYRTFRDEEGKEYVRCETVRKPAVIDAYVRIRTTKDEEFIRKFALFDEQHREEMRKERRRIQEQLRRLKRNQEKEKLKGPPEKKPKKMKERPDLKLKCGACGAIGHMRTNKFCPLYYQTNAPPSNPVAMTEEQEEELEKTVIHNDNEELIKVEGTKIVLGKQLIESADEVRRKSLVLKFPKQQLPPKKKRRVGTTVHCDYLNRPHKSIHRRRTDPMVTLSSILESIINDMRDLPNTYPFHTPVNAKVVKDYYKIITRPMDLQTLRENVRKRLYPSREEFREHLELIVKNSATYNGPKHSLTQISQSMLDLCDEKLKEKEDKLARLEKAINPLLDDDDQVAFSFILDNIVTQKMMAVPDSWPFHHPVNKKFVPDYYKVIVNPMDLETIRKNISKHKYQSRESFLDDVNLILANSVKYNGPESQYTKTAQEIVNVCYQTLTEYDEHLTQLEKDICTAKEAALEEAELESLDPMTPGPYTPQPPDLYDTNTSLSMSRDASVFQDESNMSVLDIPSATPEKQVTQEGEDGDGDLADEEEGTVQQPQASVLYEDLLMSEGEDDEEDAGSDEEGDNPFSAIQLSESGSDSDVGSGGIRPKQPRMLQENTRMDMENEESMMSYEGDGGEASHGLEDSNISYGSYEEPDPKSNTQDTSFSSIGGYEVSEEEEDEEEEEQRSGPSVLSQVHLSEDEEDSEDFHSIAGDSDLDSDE
Chain of SRC (P12931 whole entry): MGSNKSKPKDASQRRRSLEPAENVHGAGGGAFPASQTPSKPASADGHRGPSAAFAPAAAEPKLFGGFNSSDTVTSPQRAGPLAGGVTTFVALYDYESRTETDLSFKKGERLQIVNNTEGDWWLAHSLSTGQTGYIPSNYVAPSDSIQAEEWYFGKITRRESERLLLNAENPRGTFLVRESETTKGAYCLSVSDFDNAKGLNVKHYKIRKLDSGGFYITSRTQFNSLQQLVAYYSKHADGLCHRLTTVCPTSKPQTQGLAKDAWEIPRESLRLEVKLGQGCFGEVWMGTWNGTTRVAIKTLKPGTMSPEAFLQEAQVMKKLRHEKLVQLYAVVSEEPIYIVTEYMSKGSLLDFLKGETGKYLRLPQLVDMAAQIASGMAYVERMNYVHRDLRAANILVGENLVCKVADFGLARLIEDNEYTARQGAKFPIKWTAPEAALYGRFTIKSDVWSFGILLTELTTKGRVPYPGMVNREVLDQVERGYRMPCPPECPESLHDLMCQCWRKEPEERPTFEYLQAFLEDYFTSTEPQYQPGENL
Chain of SRPK1 (Q96SB4 whole entry): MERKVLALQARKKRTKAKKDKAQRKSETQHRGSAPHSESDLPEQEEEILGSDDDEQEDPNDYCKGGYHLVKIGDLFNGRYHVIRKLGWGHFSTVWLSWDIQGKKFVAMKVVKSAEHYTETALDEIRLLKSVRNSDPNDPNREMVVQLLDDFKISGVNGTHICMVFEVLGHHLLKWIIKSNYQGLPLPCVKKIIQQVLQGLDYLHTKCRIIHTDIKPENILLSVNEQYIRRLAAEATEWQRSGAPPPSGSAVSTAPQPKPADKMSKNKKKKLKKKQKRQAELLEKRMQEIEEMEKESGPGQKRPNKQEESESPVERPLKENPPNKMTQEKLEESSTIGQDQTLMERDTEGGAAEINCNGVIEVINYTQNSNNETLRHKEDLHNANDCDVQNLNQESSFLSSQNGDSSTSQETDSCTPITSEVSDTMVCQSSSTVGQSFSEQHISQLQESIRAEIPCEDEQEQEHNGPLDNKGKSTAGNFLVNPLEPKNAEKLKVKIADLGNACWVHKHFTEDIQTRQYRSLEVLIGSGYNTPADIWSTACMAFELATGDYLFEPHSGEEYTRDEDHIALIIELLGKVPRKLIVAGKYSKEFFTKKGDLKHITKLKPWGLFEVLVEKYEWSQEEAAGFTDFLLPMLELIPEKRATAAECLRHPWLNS

- ΔTm MR24 (24) [1]: 0.0 °C
- ΔTm MR24 (24) [2]: -0.1 °C
- ΔTm MR24 (24) [3]: 9.1 °C
- ΔTm MR24 (24) [4]: -0.1 °C
- ΔTm MR24 (24) [5]: -1.8 °C
- ΔTm MR24 (24) [6]: -3.0 °C
- ΔTm MR24 (24) [7]: 7.2 °C
- ΔTm MR24 (24) [8]: 0.4 °C
Structure (SMILES): Cc1cccc(-c2ccc(-c3cc4cnc(NC(CO)CO)nc4n(CCCCN)c3=O)c(Cl)c2)n1 [compound 24, 8-(4-Aminobutyl)-6-(2-chloro-4-(6-methylpyridin-2-yl)phenyl)-2-((1,3-dihydroxypropan-2-yl)amino)pyrido[2,3-d]pyrimidin-7(8H)-one]
